Results published in US10201532B2, “Compounds and their use” (ALLECRA THERAPEUTICS GMBH, priority 2010, dated 2019).

Experiments:
[1] = tested on: KPC-3 expressing E. coli (J53 R6206); assay: Synergistic broth micro-dilution MIC (checkerboard); format: cell-based, Escherichia coli
[2] = tested on: KPC-2 producing K. pneumoniae (ATCC BAA-1705); assay: as above; format: cell-based, Klebsiella pneumoniae; details: ATCC BAA-1705; for MIC: Klebsiella pneumoniae, ATCCBAA1705, no BLI, read-out: MIC of antibiotic alone (no BLI)
E. coli Ecoli233 (KPC3) = assay: Synergistic broth micro-dilution MIC; format: cell-based, Escherichia coli
[3] = tested on: KPC2 K. pneumoniae ATCC BAA 1705; assay: Mice systemic infection model; format: in vivo; details: Klebsiella pneumoniae, BAA1705; mice, sub-cutaneous; read-out: ED50 of Doripenem alone
Protocol: Female Swiss Albino mice, weighing 18-22 g were used for all studies. For each dose group, 5 or 6 mice were included. Study protocols were reviewed and approved by Institutional Animal Ethical Committee, Orchid Research Laboratories Limited. Mice were housed in individually ventilated cages provided with food and water ad libitum, throughout the study period. From overnight culture in Brain-Heart Infusion agar medium, challenge inoculum with required bacterial density was prepared in normal saline containing Hog gastric mucin. In studies involved with doripenem, washed bacterial cells was used. Each mouse was infected […] inoculum by intra-peritoneal injection.
Infected mice were dosed sub-cutaneously, with drug preparations at three different time points post-infection.
Imipenem with BLI combinations: Increasing concentrations of Imipenem as single agent or in combination with fixed concentration of BLIs were used to dose infected mice, sub-cutaneously. In this experiment Imipenem was always administered along with cilastatin. Doripenem with BLI combinations: Increasing concentrations of doripenem as single agent or in combination with fixed concentration of BLIs were used to dose infected mice, sub-cutaneously.
Survival of the treated mice were monitored twice a day, up to 7 days post-infection. Efficacy dose 50 (ED50) was calculated by Reed and Muench method (Reed, L. J.; Muench, H. “A simple method of estimating fifty percent endpoints”. The American Journal of Hygiene, 1938, 27: 493-497.).

[4] = tested on: KPC2 K. pneumoniae ATCC BAA 1705; assay: Neutropenic mice thigh infection model (human adapted model); format: in vivo; details: Doripenem 70 mg/kg fractionated over 5.5 h; end point 8 h
Protocol: Female Swiss Albino mice weighing 24-30 g were used for all studies. Study protocols were reviewed and approved by Institutional Animal Ethical Committee, Orchid Research Laboratories Limited. Mice were rendered neutropenic by intra-peritoneal cyclophosphamide injections. Log phase culture in brain heart infusion broth was injected in to mice thighs. Imipenem or Doripenen alone or in combination were administered sub-cutaneously in decreasing fractionated doses every 15 minutes over the period of 5.5 h (Flückiger, U. et al. “Integration of pharmacokinetics and pharmacodynamics of Imipenem in a human-adapted mouse model’. Antimicrobial Agents and Chemother, 1991, 35(9): 1905-1910). The Compound-1 or tazobactam was administered sub-cutaneously as bolus dose at the start of dosing. Efficacy end point was 6 h in Imipenem studies and 8 h in Doripenen studies.
Three experiments were carried out where Doripenen alone or in combination with compound-1 or tazobactam (two experiments) were evaluated. Doripenem 70 mg/kg was administered in fractionated doses over the period of 5.5 h (Fluckiger, U. et al. “Integration of pharmacokinetics and pharmacodynamics of Imipenem in a human-adapted mouse model’. Antimicrobial Agents and Chemother., 1991, 35(9): 1905-1910). Compound-1 or tazobactam was administered as bolus dose at initiation of therapy. Efficacy end point was 8 h after initiation of therapy.

SMILES	MIC of BLI alone [1]	MIC of Imipenem in combination with BLI ([1]; BLI at 4 μg/mL)	MIC of Meropenem in combination with BLI ([1]; BLI at 4 μg/mL)	MIC of Imipenem in combination with BLI ([1]; BLI at 16 μg/mL)	MIC of Meropenem in combination with BLI ([1]; BLI at 16 μg/mL)	MIC of BLI alone [2]	MIC of Imipenem in combination with BLI ([2]; BLI at 4 μg/mL)	MIC of Meropenem in combination with BLI ([2]; BLI at 4 μg/mL)	MIC of Imipenem in combination with BLI ([2]; BLI at 16 μg/mL)	MIC of Meropenem in combination with BLI ([2]; BLI at 16 μg/mL)	MIC [2]	also measured
C=CC[n+]1ccn(C[C@@]2(C)[C@H](C(=O)O)N3C(=O)C[C@H]3S2(=O)=O)n1 [Compound-4, 1-{[(2S,3S,5R)-2-Carboxy-3-methyl-4,4,7-trioxo-4-thia-1-azabicyclo[3.2.0]hept-3-yl]methyl}-3-allyl-1H-1,2,3-triazol-3-ium]	>16 µg/mL	0.5 µg/mL	<0.125 µg/mL	0.25 µg/mL	<0.125 µg/mL	>16 µg/mL	4 µg/mL	8 µg/mL	1 µg/mL	4 µg/mL		
C[C@]1(Cn2cc[n+](CC(N)=O)n2)[C@H](C(=O)O)N2C(=O)C[C@H]2S1(=O)=O [Compound-5, 1-{[(2S,3S,5R)-2-Carboxy-3-methyl-4,4,7-trioxo-4-thia-1-azabicyclo[3.2.0]hept-3-yl]methyl}-3-(2-amino-2-oxoethyl)-1H-1,2,3-triazol-3-ium]	>16 µg/mL	0.5 µg/mL	<0.125 µg/mL	0.25 µg/mL	<0.125 µg/mL	>16 µg/mL	8 µg/mL	8 µg/mL	1 µg/mL	2 µg/mL		
CC(C)(C)OC(=O)C[n+]1ccn(C[C@@]2(C)[C@H](C(=O)O)N3C(=O)C[C@H]3S2(=O)=O)n1 [Compound-6, 1-{[(2S,3S,5R)-2-Carboxy-3-methyl-4,4,7-trioxo-4-thia-1-azabicyclo[3.2.0]hept-3-yl]methyl}-3-(2-t-butoxy-2-oxoethyl)-1H-1,2,3-triazol-3-ium]	>16 µg/mL	1 µg/mL	0.5 µg/mL	0.5 µg/mL	<0.125 µg/mL	>16 µg/mL	8 µg/mL	16 µg/mL	8 µg/mL	4 µg/mL		
CCOC(=O)CNC(=O)C[n+]1ccn(C[C@@]2(C)[C@H](C(=O)O)N3C(=O)C[C@H]3S2(=O)=O)n1 [Compound-8, 1-{[(2S,3S,5R)-2-Carboxy-3-methyl-4,4,7-trioxo-4-thia-1-azabicyclo[3.2.0]hept-3-yl]methyl}-3-{2[(2-ethoxy-2-oxoethyl)amino]-2-oxoethyl}-1H-1,2,3-triazol-3-ium]	>16 µg/mL	1 µg/mL	0.25 µg/mL	0.25 µg/mL	<0.125 µg/mL	>16 µg/mL	8 µg/mL	8 µg/mL	4 µg/mL	4 µg/mL		
Cc1cn(C[C@@]2(C)[C@H](C(=O)[O-])N3C(=O)C[C@H]3S2(=O)=O)c[n+]1C [Compound-13, (2S,3S,5R)-3-Methyl-3-(4-methyl-3-methyl-imidazol-3-ium-1-ylmethyl)-4,4,7-trioxo-4-thia-1-aza-bicyclo[3.2.0]heptane-2-carboxylate]							2 µg/mL		2 µg/mL			MIC of Imipenem in combination with BLI (E. coli Ecoli233 (KPC3); BLI at 4 μg/mL): 8 µg/mL; MIC of Imipenem in combination with BLI (E. coli Ecoli233 (KPC3); BLI at 16 μg/mL): 1 µg/mL
C[C@@H](O)[C@H]1C(=O)N2C(C(=O)O)=C(S[C@@H]3CN[C@H](CNS(N)(=O)=O)C3)[C@H](C)[C@H]12 [Doripenem]												ED50 [3]: 14.1 mg/kg; Bacterial load (range), Doripenem alone [4]: 5.4E+06-2.6E+07 CFU/thigh
C[C@@H](O)[C@H]1C(=O)N2C(C(=O)O)=C(S[C@@H]3CN[C@H](C(=O)Nc4cccc(C(=O)O)c4)C3)[C@H](C)[C@H]12 [Ertapenem]											> 64 µg/mL	
C[C@@H](O)[C@H]1C(=O)N2C(C(=O)O)=C([C@H]3CCCO3)S[C@H]12 [Faropenem]											> 64 µg/mL	
C[C@@H](O)[C@H]1C(=O)N2C(C(=O)O)=C(S[C@@H]3CN[C@H](C(=O)N(C)C)C3)[C@H](C)[C@H]12 [Meropenem]											32 to 64 µg/mL	MIC of antibiotic alone (no BLI) ([1]; no BLI): 2 to 4 µg/mL
